Measured values: ChEMBL document CHEMBL1201862, “PubChem BioAssay data set” (2004)
The source made the active and inactive calls.

What was measured:
[1] = biological target: T1, Rac GTPase-activating protein 1 (Homo sapiens, UniProt Q9H0H5); test: MgcRacGAP GTPase-activating activity inhibitors, confirmation, biochemical, ADP Hunter fluorescence, primary and confirmatory (AID 624330); assay type: functional
T1 sequence (Q9H0H5 whole entry): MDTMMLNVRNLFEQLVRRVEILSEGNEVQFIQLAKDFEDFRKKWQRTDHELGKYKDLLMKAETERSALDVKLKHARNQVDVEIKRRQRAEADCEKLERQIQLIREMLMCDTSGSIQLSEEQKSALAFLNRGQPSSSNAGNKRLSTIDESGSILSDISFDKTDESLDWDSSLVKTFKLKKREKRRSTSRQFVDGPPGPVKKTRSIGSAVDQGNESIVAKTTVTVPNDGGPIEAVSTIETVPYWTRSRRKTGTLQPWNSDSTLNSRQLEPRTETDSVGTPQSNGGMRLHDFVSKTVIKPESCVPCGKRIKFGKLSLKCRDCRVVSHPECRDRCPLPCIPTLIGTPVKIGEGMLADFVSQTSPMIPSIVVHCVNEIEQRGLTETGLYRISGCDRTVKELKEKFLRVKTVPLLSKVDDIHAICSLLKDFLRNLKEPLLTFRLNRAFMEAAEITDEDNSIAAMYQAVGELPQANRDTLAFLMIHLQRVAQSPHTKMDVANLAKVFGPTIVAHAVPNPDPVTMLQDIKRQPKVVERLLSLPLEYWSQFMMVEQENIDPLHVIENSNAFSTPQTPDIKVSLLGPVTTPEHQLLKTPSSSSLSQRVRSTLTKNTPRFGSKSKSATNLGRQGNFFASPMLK

Large T antigen = Large T antigen (Simian virus 40, UniProt P03070); assay type: functional, Betapolyomavirus macacae;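 also: Confirmatory-stage PubChem screen for compounds that inhibit SV40 T antigen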
Sequence of Large T antigen (P03070 whole entry): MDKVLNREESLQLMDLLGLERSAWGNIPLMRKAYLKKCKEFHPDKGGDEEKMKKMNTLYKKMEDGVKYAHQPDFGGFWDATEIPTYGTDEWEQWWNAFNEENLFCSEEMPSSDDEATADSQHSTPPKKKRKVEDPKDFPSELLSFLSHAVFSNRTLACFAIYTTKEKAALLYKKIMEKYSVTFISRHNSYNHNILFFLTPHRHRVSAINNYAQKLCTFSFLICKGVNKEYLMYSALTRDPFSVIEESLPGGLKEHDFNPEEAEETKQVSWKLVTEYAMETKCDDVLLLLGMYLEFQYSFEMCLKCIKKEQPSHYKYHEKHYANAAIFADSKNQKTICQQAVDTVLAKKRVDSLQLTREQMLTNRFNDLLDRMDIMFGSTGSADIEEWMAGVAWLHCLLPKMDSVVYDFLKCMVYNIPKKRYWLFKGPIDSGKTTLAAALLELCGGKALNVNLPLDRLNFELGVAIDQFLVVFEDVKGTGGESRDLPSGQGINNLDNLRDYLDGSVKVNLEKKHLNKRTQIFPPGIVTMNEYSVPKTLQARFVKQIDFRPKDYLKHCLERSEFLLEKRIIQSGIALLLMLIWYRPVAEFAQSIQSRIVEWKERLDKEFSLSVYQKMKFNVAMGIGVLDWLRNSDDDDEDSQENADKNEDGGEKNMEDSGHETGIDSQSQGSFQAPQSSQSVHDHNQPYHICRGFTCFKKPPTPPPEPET

[2] = Luminescence Cell-Based Dose Response HTS to Identify Activators of Luciferase Translation or Activity in H4 […] Cells. [Related pubchem assays: 1829 (Project Summary), 1814 (Primary HTS)]; assay type: functional
H4 = test: Luminescence Cell-Based Dose Response HTS to Identify Activators of 5'UTR Stem-Loop Driven Prion Protein mRNA Translation in H4 Neuroglioblastoma Cells. [Related pubchem assays: 1829 (Project Summary), 1814 (Primary HTS)]; assay type: functional; conditions: Homo sapiens
[3] = biological target: T2, Corticotropin-releasing factor receptor 2/Corticotropin-releasing factor-binding protein (Homo sapiens, UniProt P24387+Q13324); test: activators of CRF receptor 2 with binding protein – uHTS hits, confirmation (AID 602473); assay type: functional; conditions: read-out: EC50_Mean
T2 sequence (Q13324 whole entry): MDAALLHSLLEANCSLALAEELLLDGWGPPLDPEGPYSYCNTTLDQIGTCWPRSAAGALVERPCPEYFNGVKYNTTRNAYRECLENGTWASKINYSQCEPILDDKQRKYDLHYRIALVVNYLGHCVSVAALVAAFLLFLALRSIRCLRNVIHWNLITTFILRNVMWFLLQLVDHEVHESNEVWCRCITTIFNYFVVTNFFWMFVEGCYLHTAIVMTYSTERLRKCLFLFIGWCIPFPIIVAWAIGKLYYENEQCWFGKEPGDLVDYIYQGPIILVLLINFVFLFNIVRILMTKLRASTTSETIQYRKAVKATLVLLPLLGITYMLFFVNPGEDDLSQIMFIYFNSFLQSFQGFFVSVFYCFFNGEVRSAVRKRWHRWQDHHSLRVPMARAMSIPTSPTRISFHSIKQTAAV
T2 sequence (P24387 whole entry): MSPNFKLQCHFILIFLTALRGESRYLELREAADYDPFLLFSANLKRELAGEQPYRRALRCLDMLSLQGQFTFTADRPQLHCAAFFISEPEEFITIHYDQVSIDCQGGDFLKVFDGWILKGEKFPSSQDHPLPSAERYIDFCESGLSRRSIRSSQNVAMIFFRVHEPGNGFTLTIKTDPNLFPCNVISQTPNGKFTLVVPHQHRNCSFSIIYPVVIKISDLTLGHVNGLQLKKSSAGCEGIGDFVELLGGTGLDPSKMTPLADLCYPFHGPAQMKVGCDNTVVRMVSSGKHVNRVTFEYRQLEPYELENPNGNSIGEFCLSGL

[4] = biological target: FAD-linked sulfhydryl oxidase ALR (Homo sapiens, UniProt P55789); test: inhibitors of human ALR sulfhydryl oxidase, dose response, biochemical, H2O2 detection, luminescence, cherry-pick (AID 493248)
Sequence of FAD-linked sulfhydryl oxidase ALR (P55789 whole entry): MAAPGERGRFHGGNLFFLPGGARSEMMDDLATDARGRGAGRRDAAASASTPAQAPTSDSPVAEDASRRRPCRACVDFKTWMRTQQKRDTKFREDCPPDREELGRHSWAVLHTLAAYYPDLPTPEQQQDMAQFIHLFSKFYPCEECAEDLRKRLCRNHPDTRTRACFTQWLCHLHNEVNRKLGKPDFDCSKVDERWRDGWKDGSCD

cells [5] = assay type: functional, cell-based
cells [6] = assay type: functional, cell-based; remark: listed apart in the source
Nonstructural protein 1 = Nonstructural protein 1 (Influenza A virus, UniProt Q194T2); assay type: functional, Influenza A virus (A/California/07/2009(H1N1))
Sequence of Nonstructural protein 1 (Q194T2 whole entry): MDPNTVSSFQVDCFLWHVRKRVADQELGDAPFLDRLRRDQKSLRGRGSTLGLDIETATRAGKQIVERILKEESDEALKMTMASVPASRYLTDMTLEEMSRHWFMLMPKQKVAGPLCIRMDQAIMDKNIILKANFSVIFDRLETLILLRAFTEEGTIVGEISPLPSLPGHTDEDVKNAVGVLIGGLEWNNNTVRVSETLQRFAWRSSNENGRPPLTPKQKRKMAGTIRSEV

Paired box protein Pax-8 = Paired box protein Pax-8 (Homo sapiens, UniProt Q06710); test: inhibitors of PAX8-driven TPO luciferase reporter, dose response, RMG-I cells, cherry-pick (AID 687027); assay type: functional, cell-based;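 also: luciferase reporter driven by Pax8 target thyroperoxidase promoter measured by SteadyGlo luminescence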
Sequence of Paired box protein Pax-8 (Q06710 whole entry): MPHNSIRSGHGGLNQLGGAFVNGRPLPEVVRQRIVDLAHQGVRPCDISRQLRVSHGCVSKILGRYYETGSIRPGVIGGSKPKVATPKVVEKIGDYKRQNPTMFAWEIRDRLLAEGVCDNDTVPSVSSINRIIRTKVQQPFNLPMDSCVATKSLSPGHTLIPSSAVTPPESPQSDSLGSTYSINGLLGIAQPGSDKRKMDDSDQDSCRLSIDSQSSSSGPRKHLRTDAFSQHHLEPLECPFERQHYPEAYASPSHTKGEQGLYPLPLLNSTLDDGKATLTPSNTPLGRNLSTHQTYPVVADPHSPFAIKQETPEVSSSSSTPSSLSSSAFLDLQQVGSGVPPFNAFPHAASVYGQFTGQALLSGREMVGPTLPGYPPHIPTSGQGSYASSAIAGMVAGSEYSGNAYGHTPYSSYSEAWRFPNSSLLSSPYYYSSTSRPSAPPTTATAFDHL

[7] = THP-1 cell cytotoxicity, dose response, cytotoxicity control for Vif-APOBEC3G degradation inhibitor project, THP-1 cells (AID 1117359); assay type: functional; conditions: Human immunodeficiency virus 1, THP-1
INS1 = test: beta cell apoptosis inhibitors, cytokine rescue, dose response, luminescence, retest (AID 449756); assay type: functional, cell-based; conditions: Rattus norvegicus;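 also: cell death triggered by IL-1 beta plus TNF-alpha plus IFN-gamma mixture; protective hits raise ATP signal compared with cytokine alone wells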
[8] = growth suppression of beta-catenin-knockout colon cells, dose response, cell-based, HCT116, human colon tumor (AID 1045); assay type: functional;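 also: HCT116 colon tumor cells with beta catenin knocked out; cells exposed to compound for 60 hours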
Streptococcus = test: Group A Streptococcus viability loss, dose response, counter-screen for streptokinase expression inhibitor project, luminescence, BacTiterGlo (AID 1915); assay type: functional, organism-based;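 also: potency for reduction of bacterial viability or growth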
[9] = growth suppression of PTEN-null colon cells, dose response, cell-based, HCT116 PTEN knockout (AID 1047); assay type: functional;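 also: HCT116 colon tumor cells with PTEN knocked out; cells exposed to compound for 60 hours before readout; potency for loss of cell viability measured by luminescence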
[10] = test system: Streptococcus sp. 'group A'; test: growth inhibition of control SK(-) GAS strain, dose response, counter-screen for streptokinase expression inhibitor project, luminescence, kanamycin, BacTiterGlo, confirmation (AID 1900); assay type: functional, organism-based
Streptokinase A = biological target: T3, Streptokinase A (Streptococcus pyogenes serotype M1, UniProt P10520); test: S. pyogenes streptokinase expression inhibitors, potency, dose response, plasminogen activation absorbance, OD405 (AID 1914); assay type: functional, Streptococcus pyogenes M1 GAS;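 also: secreted streptokinase activity via plasminogen activation per viability signal from cell pellet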
T3 sequence (P10520 whole entry): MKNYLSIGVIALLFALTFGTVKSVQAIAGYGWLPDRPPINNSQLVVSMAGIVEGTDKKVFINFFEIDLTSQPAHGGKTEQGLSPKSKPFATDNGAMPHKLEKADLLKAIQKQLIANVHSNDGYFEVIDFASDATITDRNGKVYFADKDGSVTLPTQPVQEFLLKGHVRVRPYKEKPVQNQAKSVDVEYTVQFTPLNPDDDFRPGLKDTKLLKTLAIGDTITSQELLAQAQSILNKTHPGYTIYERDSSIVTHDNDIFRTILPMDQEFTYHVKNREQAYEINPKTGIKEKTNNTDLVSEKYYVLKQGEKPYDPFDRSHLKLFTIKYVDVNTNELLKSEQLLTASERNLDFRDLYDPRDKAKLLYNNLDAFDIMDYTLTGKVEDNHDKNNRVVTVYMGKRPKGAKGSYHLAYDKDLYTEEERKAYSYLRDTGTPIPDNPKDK

[11] = HEp-2 cell cytotoxicity, dose response, cytotoxicity control for RSV inhibitor project, HTS (AID 2410); assay type: functional; conditions: human respiratory syncytial virus
Genome polyprotein = Genome polyprotein (dengue virus type 2, UniProt P29990); test: Dengue-2 NS5 methyltransferase inhibitors, primary screen, biochemical, confirmation dose response (AID 588689); assay type: functional
Sequence of Genome polyprotein (P29990 2492-3391 limits assumed): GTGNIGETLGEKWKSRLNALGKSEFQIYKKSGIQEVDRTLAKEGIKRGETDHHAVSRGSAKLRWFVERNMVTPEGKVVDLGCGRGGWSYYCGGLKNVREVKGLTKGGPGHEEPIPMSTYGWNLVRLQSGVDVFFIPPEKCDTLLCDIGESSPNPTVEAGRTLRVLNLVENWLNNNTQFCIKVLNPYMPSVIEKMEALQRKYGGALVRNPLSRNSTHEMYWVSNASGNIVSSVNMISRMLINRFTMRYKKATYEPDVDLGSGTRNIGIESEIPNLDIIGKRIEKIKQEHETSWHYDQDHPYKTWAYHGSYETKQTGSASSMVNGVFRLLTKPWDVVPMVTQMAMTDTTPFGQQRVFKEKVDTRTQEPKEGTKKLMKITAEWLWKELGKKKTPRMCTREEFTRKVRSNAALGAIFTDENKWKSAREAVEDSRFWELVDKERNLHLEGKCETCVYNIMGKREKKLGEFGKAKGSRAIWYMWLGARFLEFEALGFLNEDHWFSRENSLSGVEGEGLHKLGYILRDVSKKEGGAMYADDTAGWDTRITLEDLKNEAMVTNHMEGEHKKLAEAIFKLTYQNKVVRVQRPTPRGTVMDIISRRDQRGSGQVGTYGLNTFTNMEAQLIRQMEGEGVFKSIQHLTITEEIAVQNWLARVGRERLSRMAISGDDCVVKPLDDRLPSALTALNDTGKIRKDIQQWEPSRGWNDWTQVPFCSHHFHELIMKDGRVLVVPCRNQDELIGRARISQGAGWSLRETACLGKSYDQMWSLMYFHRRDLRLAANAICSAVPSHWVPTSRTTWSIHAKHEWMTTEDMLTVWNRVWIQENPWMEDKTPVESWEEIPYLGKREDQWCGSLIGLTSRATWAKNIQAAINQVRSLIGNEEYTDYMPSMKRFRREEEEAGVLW

## CCc1c(C)nc(N)nc1N1N=C1SC(C(C)=O)C(C)=O
[1]
  IC50: 12.5 µM (active)
Large T antigen
  IC50: 95.9 µM (active)

## O=C(Nc1ccc(Cl)c(Cl)c1)c1ccc(Cn2cc(Cl)cn2)cc1
[2]
  EC50: 38.1 µM (active)
H4
  EC50: > 120 µM (not active)

## Cc1cc(C=C(C#N)C#N)ccc1N1CCCC1
[3]
  EC50: 6.3 µM (active)

## COc1ccc(NC2CCCN(C(=O)c3c(C)noc3C)C2)cc1 (stereo not given)
[4]
  AC50: 3.46 µM (active)
Large T antigen
  IC50: 24 µM (active)

## COc1ccc2nc(NC3=NCCN3)sc2c1
[2]
  EC50: 0.778 µM (active)
H4
  EC50: 2.01 µM (active)

## O=C(NNC(=O)c1ccccc1Br)c1ccc(Cl)cc1
Cells [5]
  EC50: > 350 µM (not active)
Cells [6]
  EC50: > 350 µM (not active)

## COc1ccc(N=Nc2c(N)n[nH]c2N)cc1
[4]
  AC50: 17 µM (active)
Large T antigen
  IC50: 12 µM (active)

## CS(=O)(=O)c1ccc2nc(NC(=O)C3CC3)sc2c1
Cells [5]
  EC50: > 350 µM (not active)
Cells [6]
  EC50: > 350 µM (not active)

## CC1=NN(c2ccccc2)C(=O)/C1=C\c1sccc1C
Nonstructural protein 1
  IC50: > 100 µM (active)

## CCCCCCc1cc2cc(C(=O)NC)c(=N)oc2cc1O
[3]
  EC50: 3.06 µM (active)

## COc1cc(C2c3cc4c(c(O)c3CC3COC(=O)C32)OCO4)cc(OC)c1OC (stereo not given)
Paired box protein Pax-8
  AC50: < 260 nM (active)

## CC(=O)Nc1ccccc1O
Large T antigen
  IC50: 6.2 µM (active)

## Cc1ccccc1CCNC(=O)c1ccc(Cl)c(S(=O)(=O)N2CC(C)OC(C)C2)c1 (stereo not given)
[7]
  CC50: > 40 µM (active)

## CN1/C(=C\C(=S)NC(=O)c2ccccc2Cl)C(C)(C)c2ccccc21
Nonstructural protein 1
  IC50: 29.3 µM (active)
INS1
  AC50: 8.03 µM (active)

## O=C(Oc1ccc(-c2cnc3ccccc3n2)cc1)c1ccc(Cl)c([N+](=O)[O-])c1
[8]
  EC50: 34.6 µM (active)
Streptococcus
  EC50: 114 µM (active)
[9]
  EC50: 48.9 µM (active)
[10]
  EC50: 11.5 µM (active)
Streptokinase A
  EC50: > 150 µM (not active)
[11]
  CC50: 25.1 µM (active)

## O=C1NN(c2cccc(Br)c2)C(=O)/C1=C\c1ccc(O)cc1
Genome polyprotein
  IC50: > 100 µM (active)
Large T antigen
  IC50: 17.2 µM (active)
